For 49 compounds, IC50 results are on record in patent US8877741B2, “Pyrrolidine derivatives, pharmaceutical compositions and uses thereof” (Boehringer Ingelheim International GmbH, priority 2013, dated 2014).

Each structure is given as a SMILES string. pIC50: −log10 of the molar value.

One may read the pIC50 as −log10 of the IC50, conventionally taken in molar units.

human ACC2, sequence (O00763 129-2458): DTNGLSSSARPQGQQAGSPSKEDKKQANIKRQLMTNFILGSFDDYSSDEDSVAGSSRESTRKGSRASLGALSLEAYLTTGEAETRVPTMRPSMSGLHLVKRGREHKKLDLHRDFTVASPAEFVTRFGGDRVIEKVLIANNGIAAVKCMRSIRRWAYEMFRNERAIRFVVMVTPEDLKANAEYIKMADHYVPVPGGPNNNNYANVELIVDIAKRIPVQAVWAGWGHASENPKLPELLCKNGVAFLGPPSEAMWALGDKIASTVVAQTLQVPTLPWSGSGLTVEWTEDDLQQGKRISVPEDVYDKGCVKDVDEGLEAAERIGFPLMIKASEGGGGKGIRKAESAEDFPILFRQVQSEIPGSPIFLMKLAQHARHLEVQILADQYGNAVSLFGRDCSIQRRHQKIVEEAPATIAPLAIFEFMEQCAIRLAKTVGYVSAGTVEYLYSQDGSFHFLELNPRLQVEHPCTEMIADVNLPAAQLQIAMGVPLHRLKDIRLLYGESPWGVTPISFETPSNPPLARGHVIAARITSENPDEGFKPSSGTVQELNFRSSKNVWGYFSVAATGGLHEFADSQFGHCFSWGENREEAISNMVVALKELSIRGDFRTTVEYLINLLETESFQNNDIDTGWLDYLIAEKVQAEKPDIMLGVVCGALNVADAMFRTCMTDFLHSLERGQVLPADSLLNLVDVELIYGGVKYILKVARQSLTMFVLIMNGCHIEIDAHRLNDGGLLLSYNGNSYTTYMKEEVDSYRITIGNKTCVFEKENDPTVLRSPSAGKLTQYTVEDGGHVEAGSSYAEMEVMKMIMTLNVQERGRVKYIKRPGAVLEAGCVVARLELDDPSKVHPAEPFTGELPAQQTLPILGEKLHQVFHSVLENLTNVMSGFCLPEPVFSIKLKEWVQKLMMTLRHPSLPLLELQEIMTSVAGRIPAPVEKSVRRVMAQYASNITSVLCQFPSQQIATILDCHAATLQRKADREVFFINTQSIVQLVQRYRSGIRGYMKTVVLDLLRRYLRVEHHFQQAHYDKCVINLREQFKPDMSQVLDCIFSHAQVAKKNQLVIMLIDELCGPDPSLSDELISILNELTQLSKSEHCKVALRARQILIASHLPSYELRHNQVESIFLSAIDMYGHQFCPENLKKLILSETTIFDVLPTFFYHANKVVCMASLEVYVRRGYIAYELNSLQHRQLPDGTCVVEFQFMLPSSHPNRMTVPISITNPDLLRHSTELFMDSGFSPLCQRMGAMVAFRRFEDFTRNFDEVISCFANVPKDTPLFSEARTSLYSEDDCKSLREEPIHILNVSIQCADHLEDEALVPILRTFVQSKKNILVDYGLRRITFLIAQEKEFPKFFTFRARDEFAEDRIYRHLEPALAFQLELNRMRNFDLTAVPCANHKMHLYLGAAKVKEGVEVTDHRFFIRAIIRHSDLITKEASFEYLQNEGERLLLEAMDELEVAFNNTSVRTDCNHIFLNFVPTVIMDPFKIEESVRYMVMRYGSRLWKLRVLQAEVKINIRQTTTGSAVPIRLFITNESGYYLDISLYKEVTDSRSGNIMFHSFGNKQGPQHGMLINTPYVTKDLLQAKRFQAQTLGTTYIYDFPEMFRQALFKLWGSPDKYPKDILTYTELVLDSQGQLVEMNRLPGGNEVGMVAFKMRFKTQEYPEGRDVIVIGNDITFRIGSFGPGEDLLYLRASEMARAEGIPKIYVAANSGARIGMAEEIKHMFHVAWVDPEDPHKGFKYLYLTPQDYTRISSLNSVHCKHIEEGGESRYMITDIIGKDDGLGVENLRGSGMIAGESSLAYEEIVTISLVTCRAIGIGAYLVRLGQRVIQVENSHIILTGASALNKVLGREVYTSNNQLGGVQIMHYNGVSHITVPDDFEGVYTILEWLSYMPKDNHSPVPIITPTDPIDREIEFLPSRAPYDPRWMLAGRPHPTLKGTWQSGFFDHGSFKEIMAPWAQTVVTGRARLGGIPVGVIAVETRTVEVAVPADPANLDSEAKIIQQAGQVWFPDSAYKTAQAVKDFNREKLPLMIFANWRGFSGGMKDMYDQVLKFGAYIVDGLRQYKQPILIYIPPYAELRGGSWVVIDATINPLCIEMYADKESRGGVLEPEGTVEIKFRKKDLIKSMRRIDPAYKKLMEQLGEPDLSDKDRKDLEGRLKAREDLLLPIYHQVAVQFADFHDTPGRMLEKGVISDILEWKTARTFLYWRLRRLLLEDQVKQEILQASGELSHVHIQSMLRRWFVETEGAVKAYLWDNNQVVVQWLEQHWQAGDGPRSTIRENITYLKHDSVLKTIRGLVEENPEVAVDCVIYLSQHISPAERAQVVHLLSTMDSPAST

The target in the experiment is human ACC2 (Homo sapiens (Human), UniProt O00763). Nature of the experiment: ACC2 assay, spectrophotometric 384 well assay (NADH-linked kinetic method). The format is biochemical. As to conditions: human ACC2 construct lacking the 128 N-terminal amino acids; coupled lactate dehydrogenase/pyruvate kinase reaction, 340 nm, 25° C. In a few lines:
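ADP formation was monitored as NADH consumption at 340 nm for 15 min at 25 °C, using baculovirus-expressed human ACC2 missing its first 128 amino acids, with 500 μM ATP and 2000 μM each of acetyl-CoA and NADH (final). IC50 was fitted by non-linear regression on low-control-subtracted slopes.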
`C[C@H](NC(=O)C(C)(F)F)c1ccc(OC2CCN(c3ccc(OCC4CC4(F)F)cn3)C2)cc1` (stereo partly shown) [Example 2.35] showed a pIC50 of 6.56.

As to `C[C@H](NC(=O)c1cnn(C)c1)c1ccc(OC2CCN(c3cccc(C(F)(F)F)n3)C2)cc1` (stereo partly shown) [Example 2.36], the pIC50 is 6.89. Under `C[C@H](NC(=O)C1(C(F)(F)F)CC1)c1ccc(OC2CCN(c3cccc(C(F)(F)F)n3)C2)cc1` (stereo partly shown) [Example 2.37] stands 6.61; under `CC(C)C(=O)N[C@@H](C)c1ccc(OC2CCN(c3cccc(C(F)(F)F)n3)C2)cc1` (stereo partly shown) [Example 2.38], 6.06. Under `Cc1ncoc1C(=O)N[C@@H](C)c1ccc(OC2CCN(c3cccc(C(F)(F)F)n3)C2)cc1` (stereo partly shown) [Example 2.39] stands 6.21; under `C[C@H](NC(=O)C1(C)CC1)c1ccc(OC2CCN(c3cccc(C(F)(F)F)n3)C2)cc1` (stereo partly shown) [Example 2.40], 6.86.

`CCC(=O)N[C@@H](C)c1ccc(OC2CCN(c3cccc(C(F)(F)F)n3)C2)cc1` (stereo partly shown) [Example 2.41] had a pIC50 of 6.50. Consider `C[C@H](NC(=O)CCC#N)c1ccc(OC2CCN(c3cccc(C(F)(F)F)n3)C2)cc1` (stereo partly shown) [Example 2.42], for which the pIC50 was 6.17. For the compound `Cc1nocc1C(=O)N[C@@H](C)c1ccc(OC2CCN(c3cccc(C(F)(F)F)n3)C2)cc1` (stereo partly shown) [Example 2.43], the pIC50 is 7.24. The figure for `C[C@H](NC(=O)c1ccnc(F)c1)c1ccc(OC2CCN(c3cccc(C(F)(F)F)n3)C2)cc1` (stereo partly shown) [Example 2.44] is 6.00. Take `C[C@H](NC(=O)c1cnsc1)c1ccc(OC2CCN(c3cccc(C(F)(F)F)n3)C2)cc1` (stereo partly shown) [Example 2.45]: the pIC50 is 7.00. `C[C@H](NC(=O)c1cncs1)c1ccc(OC2CCN(c3cccc(C(F)(F)F)n3)C2)cc1` (stereo partly shown) [Example 2.46] showed a pIC50 of 7.22.

In turn, `C[C@H](NC(=O)C1CCC1)c1ccc(OC2CCN(c3cccc(C(F)(F)F)n3)C2)cc1` (stereo partly shown) [Example 2.48] showed a pIC50 of 6.05.

For the compound `C[C@H](NC(=O)C1CC1)c1ccc(OC2CCN(c3cccc(C(F)(F)F)n3)C2)cc1` (stereo partly shown) [Example 2.49], the pIC50 was 6.25. In turn, `Cc1cncc(C(=O)N[C@@H](C)c2ccc(OC3CCN(c4cccc(C(F)(F)F)n4)C3)cc2)c1` (stereo partly shown) [Example 2.50] showed a pIC50 of 6.05.

`C[C@H](NC(=O)c1ccon1)c1ccc(OC2CCN(c3cccc(C(F)(F)F)n3)C2)cc1` (stereo partly shown) [Example 2.51]: the pIC50 was 6.89. Consider `C[C@H](NC(=O)c1ccno1)c1ccc(OC2CCN(c3cccc(C(F)(F)F)n3)C2)cc1` (stereo partly shown) [Example 2.52], for which the pIC50 is 6.56. Under `Cc1nnsc1C(=O)N[C@@H](C)c1ccc(OC2CCN(c3cccc(C(F)(F)F)n3)C2)cc1` (stereo partly shown) [Example 2.53] stands 6.50; under `C[C@H](NC(=O)c1ccnc(F)c1)c1ccc(OC2CCN(c3cccc(C(F)(F)F)n3)C2)cc1` (stereo partly shown) [Example 2.54], 6.34. `C[C@H](NC(=O)CCO)c1ccc(OC2CCN(c3cccc(C(F)(F)F)n3)C2)cc1` (stereo partly shown) [Example 2.55] showed a pIC50 of 6.37. With `C[C@H](NC(=O)C1CC1)c1ccc(OC2CCN(c3ccc(OCC4CC4(F)F)cn3)C2)cc1` (stereo partly shown) [Example 2.56], the negative-log IC50 (pIC50) is 6.76.

For the compound `C[C@H](NC(=O)c1cnc(N)o1)c1ccc(OC2CCN(c3ccc(OCC4CC4(F)F)cn3)C2)cc1` (stereo partly shown) [Example 2.57], the pIC50 is 6.59. The compound `Cc1oncc1C(=O)N[C@@H](C)c1ccc(OC2CCN(c3ccnc(OC(C)C)c3)C2)cc1` (stereo partly shown) [Example 2.58] gave a pIC50 of 7.16. With `C[C@H](NC(=O)c1cncs1)c1ccc(OC2CCN(c3ccc(OCC4CC4(F)F)cn3)C2)cc1` (stereo partly shown) [Example 2.59], the pIC50 was 7.26.

As for `C[C@H](NC(=O)C(F)F)c1ccc(OC2CCN(c3ccc(OCC4CC4(F)F)cn3)C2)cc1` (stereo partly shown) [Example 2.60], the pIC50 was 7.46.

`Cc1cc(C(=O)N[C@@H](C)c2ccc(OC3CCN(c4cccc(C(F)(F)F)n4)C3)cc2)no1` (stereo partly shown) [Example 2.61] gave a pIC50 of 7.46. With `C[C@H](NC(=O)c1ccnc(C#N)c1)c1ccc(OC2CCN(c3cccc(C(F)(F)F)n3)C2)cc1` (stereo partly shown) [Example 2.62], the pIC50 is 6.76.

In turn, `C[C@H](NC(=O)C(C)(F)F)c1ccc(OC2CCN(c3cccc(C(F)(F)F)n3)C2)cc1` (stereo partly shown) [Example 2.63] gave a pIC50 of 6.69. On to `C[C@H](NC(=O)c1cc[nH]n1)c1ccc(OC2CCN(c3cccc(C(F)(F)F)n3)C2)cc1` (stereo partly shown) [Example 2.64], for which the pIC50 was 7.35. In turn, `C[C@H](NC(=O)C1(C#N)CC1)c1ccc(OC2CCN(c3ccnc(OCC4CC4)c3)C2)cc1` (stereo partly shown) [Example 2.65] had a pIC50 of 7.07. The compound `CCC(=O)N[C@@H](C)c1ccc(OC2CCN(c3ccnc(OCC4CC4)c3)C2)cc1` (stereo partly shown) [Example 2.66] showed a negative-log IC50 (pIC50) of 7.30. Under `C[C@H](NC(=O)c1cnco1)c1ccc(OC2CCN(c3ccnc(OCC4CC4)c3)C2)cc1` (stereo partly shown) [Example 2.67] stands 7.34; under `C[C@H](NC(=O)[C@@H](C)O)c1ccc(OC2CCN(c3ccnc(OCC4CC4)c3)C2)cc1` (stereo partly shown) [Example 2.68], 6.58.

With `C[C@H](NC(=O)c1cnn(C)c1Cl)c1ccc(OC2CCN(c3ccnc(OCC4CC4)c3)C2)cc1` (stereo partly shown) [Example 2.69], the pIC50 is 6.55. The figure for `C[C@H](NC(=O)c1ccon1)c1ccc(OC2CCN(c3ccnc(OCC4CC4)c3)C2)cc1` (stereo partly shown) [Example 2.70] is 7.00; for `C[C@H](NC(=O)CC#N)c1ccc(OC2CCN(c3ccnc(OCC4CC4)c3)C2)cc1` (stereo partly shown) [Example 2.71] it is 6.96; for `C[C@H](NC(=O)CO)c1ccc(OC2CCN(c3ccnc(OCC4CC4)c3)C2)cc1` (stereo partly shown) [Example 2.72] it is 6.89. In the case of `C[C@H](NC(=O)C1(C)CC1)c1ccc(OC2CCN(c3ccnc(OCC4CC4)c3)C2)cc1` (stereo partly shown) [Example 2.73], the pIC50 is 7.19.

On to `C[C@H](NC(=O)c1cnc(N)o1)c1ccc(OC2CCN(c3ccnc(OCC4CC4)c3)C2)cc1` (stereo partly shown) [Example 2.74], for which the pIC50 was 6.44. For the compound `COCC(=O)Nc1nc(C)c(C(=O)N[C@@H](C)c2ccc(OC3CCN(c4ccnc(OCC5CC5)c4)C3)cc2)s1` (stereo partly shown) [Example 2.75], the pIC50 is 7.41.

On to `C[C@H](NC(=O)c1cnn(C)c1)c1ccc(OC2CCN(c3ccnc(OCC4CC4)c3)C2)cc1` (stereo partly shown) [Example 2.77], for which the pIC50 was 7.16. Under `C[C@H](NC(=O)[C@@H](C)O)c1ccc(OC2CCN(c3ccnc(OCC4CC4)c3)C2)cc1` (stereo partly shown) [Example 2.78] stands 6.10. On to `C[C@H](NC(=O)c1cncnc1)c1ccc(OC2CCN(c3ccnc(OCC4CC4)c3)C2)cc1` (stereo partly shown) [Example 2.79], for which the pIC50 is 6.34. As for `C[C@H](NC(=O)C(C)(C)F)c1ccc(OC2CCN(c3ccnc(OCC4CC4)c3)C2)cc1` (stereo partly shown) [Example 2.80], the pIC50 was 6.91. `C[C@H](NC(=O)C(F)F)c1ccc(OC2CCN(c3ccnc(OCC4CC4)c3)C2)cc1` (stereo partly shown) [Example 2.81]: the pIC50 was 7.46. In the case of `C[C@H](NC(=O)c1cnn(C)c1N)c1ccc(OC2CCN(c3ccnc(OCC4CC4)c3)C2)cc1` (stereo partly shown) [Example 2.82], the pIC50 was 6.52. In turn, `CC(C#N)C(=O)N[C@@H](C)c1ccc(OC2CCN(c3ccnc(OCC4CC4)c3)C2)cc1` (stereo partly shown) [Example 2.83] showed a pIC50 of 6.68. On to `Cc1[nH]ncc1C(=O)N[C@@H](C)c1ccc(OC2CCN(c3ccnc(OCC4CC4)c3)C2)cc1` (stereo partly shown) [Example 2.84], for which the pIC50 is 6.77. As to `C[C@H](NC(=O)c1ccno1)c1ccc(OC2CCN(c3ccnc(OCC4CC4)c3)C2)cc1` (stereo partly shown) [Example 2.85], the pIC50 was 6.98.
